# Like-named read-outs stand apart in the source and are kept apart here.
# What was measured:
# Type in all cases: cell-based
# [1] = system: HepG2 (Liver) cancer cell line; assay: Cytotoxic activity (United States NCI protocol), HepG2; conditions: Homo sapiens
# Protocol: (§1) The cytotoxicity experiment was performed according to the United States NCI protocol, previously reported method. A detailed experimental procedure was given in Supplementary Material ([Premnath et al., 2015]).
# (§2) The newly prepared compounds 1a–1j are examined for their cytotoxic activity according to the United States NCI protocol, which was a previously reported method ([Chadha and Silakari, 2017]). The 50% growth inhibition (GI50), tumor growth inhibition (TGI), and lethal concentration (LC50) values were determined. […] Doxorubicin was used as a standard drug. None of the tested derivatives had shown significant activity toward the cancer cell lines. The compounds were also evaluated for their possible cytotoxicity in human embryonic kidney cells (HEK-293), lung cells (MRC-5), and liver cells (LO2) by employing MTT assay. […] The results of cytotoxic screening of compounds (1a–1j) are shown in Table 2, and in vitro cytotoxicity of indole derivatives (1a–1j) on normal cells are shown in Table 3.
# [2] = system: HeLa (Cervical) cancer cell line; assay: Cytotoxic activity (United States NCI protocol), HeLa; conditions: Homo sapiens; for IC (TGI): read-out: TGI
# Protocol: as §1, §2
# liver cells (LO2) = assay: In vitro cytotoxicity on normal cells, MTT assay, LO2
# Protocol: as §2
# (§3) None of the tested derivatives had shown significant activity toward the cancer cell lines. The compounds were also evaluated for the possible cytotoxicity in human embryonic kidney cells (HEK-293), lung cells (MRC5), and liver cells (LO2) by employing MTT assay.
# lung cells (MRC5) = assay: In vitro cytotoxicity on normal cells, MTT assay, MRC5; conditions: Homo sapiens
# Protocol: as §2, §3
# [3] = system: human embryonic kidney cells (HEK-293); assay: In vitro cytotoxicity on normal cells, MTT assay, HEK-293; conditions: HEK293, HEK-293 normal kidney cells
# Protocol: as §2, §3
# [4] = system: MCF-7 (Breast) cancer cell line; assay: Cytotoxic activity (United States NCI protocol), MCF-7; conditions: Homo sapiens; for GI50: 50% growth inhibition; for IC (TGI): tumor growth inhibition
# Protocol: as §1, §2
# [5] = HepG2, lethal concentration, read-out: LC50
# [6] = HepG2, tumor growth inhibition, read-out: TGI
# [7] = 50% growth inhibition, read-out: GI50
# [8] = lethal concentration, read-out: LC50 (the source's name)
# [9] = MCF7, MCF-7, lethal concentration, read-out: LC50 (the source's name)
SMILES,GI50 ([1]; HepG2) [µM],"LC50 (NCI lethal concentration 50%) ([1]; HepG2, read-out: LC50) [µM]","IC (TGI) ([1]; HepG2, read-out: TGI) [µM]",CC50 ([2]; read-out: LC50) [µM],IC50 (liver cells (LO2)) [µM],IC50 (lung cells (MRC5)) [µM],IC50 [3] [µM],"CC50 ([4]; MCF7, read-out: LC50) [µM]","LC50 (NCI lethal concentration 50%) [1, 5] [µM]","IC (TGI) [1, 6] [µM]","GI50 [2, 7] [µM]","CC50 [2, 8] [µM]",IC (TGI) ([2]; tumor growth inhibition) [µM],"GI50 ([4]; MCF7, MCF-7) [µM]","CC50 [4, 9] [µM]","IC (TGI) ([4]; MCF7, MCF-7) [µM]",GI50 [2] [µM],IC (TGI) [2] [µM]
C(=N\NC(c1ccccc1)n1ccc2ccccc21)/c1ccco1 (centres unmarked) [Compound 1a],43.2,> 100,78.3,100,67.5,76.4,70.1,> 100,–,–,–,–,–,–,–,–,–,–
O=[N+]([O-])c1cccc(C(N/N=C/c2ccco2)n2ccc3ccccc32)c1 (centres unmarked) [Compound 1b],42.2,–,–,–,72.2,67.2,62.1,–,56.8,23.1,51,> 100,89.2,46.1,> 100,85.1,–,–
Oc1ccc(C(NN=Cc2ccco2)n2ccc3ccccc32)cc1 (centres unmarked) [Compound 1c],36.3,0.9,65.3,0.5,87.1,86.7,81.1,0.55,–,–,–,–,–,–,–,–,41.3,87.2
Clc1ccc(C(N/N=C/c2ccco2)n2ccc3ccccc32)cc1 (centres unmarked) [Compound 1d],1,–,–,–,66.2,56.2,79.1,–,54,0.25,8.9,0.5,6.8,0.89,65,9.3,–,–
COc1ccc(C(N/N=C/c2ccco2)n2ccc3ccccc32)cc1 (centres unmarked) [Compound 1e],15.9,–,–,–,56,72.8,57.1,–,44.8,38.2,34.2,> 100,72.1,24.4,66.3,59.3,–,–
Oc1ccccc1C(N/N=C/c1ccco1)n1ccc2ccccc21 (centres unmarked) [Compound 1f],29.1,–,–,–,68.2,51.2,66.2,–,57.5,46.8,21.6,77.4,54.7,18.6,42.3,41.8,–,–
COc1cc(C(N/N=C/c2ccco2)n2ccc3ccccc32)ccc1O (centres unmarked) [Compound 1g],48,–,–,–,70.5,62.6,58.2,–,59.3,61.3,37.9,58.9,51.9,34,30.5,67.4,–,–
CN(C)c1ccc(C(N/N=C/c2ccco2)n2ccc3ccccc32)cc1 (centres unmarked) [Compound 1h],21.3,–,–,–,58.2,66.3,67,–,72.1,41,52.9,> 100,81.3,12.9,10.3,45.3,–,–
C(=N\NCn1ccc2ccccc21)/c1ccco1 [Compound 1j],40.3,–,–,–,70.1,75.1,52.7,–,66.8,45.3,2.3,48.3,58.3,56,78.6,49.3,–,–
"COc1cccc2c1C(=O)c1c(O)c3c(c(O)c1C2=O)C[C@@](O)(C(=O)CO)C[C@@H]3O[C@H]1C[C@H](N)[C@H](O)[C@H](C)O1 [Doxorubicin, reference compound]",0.01,–,–,–,–,–,–,–,–,0.13,0.05,0.88,0.41,0.02,0.74,0.21,–,–

# — article PMC8144490, “Synthesis and Cytotoxic Activity of Novel Indole Derivatives and Their in silico Screening on Spike Glycoprotein of SARS-CoV-2” (Frontiers in Molecular Biosciences, 2021)
